Drawing on patent US11365199B2, “Pyrazole compounds as modulators of FSHR and uses thereof” (Merck Patent GmbH, priority 2013, dated 2022), this text covers EC50 for 22 molecules.

One experiment deals with T1, FSHR (Homo sapiens, UniProt P23945).
T1 construct: expressed in transfected cells; host or cells: CHO (Cho-FSHR-LUC-1-1-43)
T1 sequence (P23945 18-695): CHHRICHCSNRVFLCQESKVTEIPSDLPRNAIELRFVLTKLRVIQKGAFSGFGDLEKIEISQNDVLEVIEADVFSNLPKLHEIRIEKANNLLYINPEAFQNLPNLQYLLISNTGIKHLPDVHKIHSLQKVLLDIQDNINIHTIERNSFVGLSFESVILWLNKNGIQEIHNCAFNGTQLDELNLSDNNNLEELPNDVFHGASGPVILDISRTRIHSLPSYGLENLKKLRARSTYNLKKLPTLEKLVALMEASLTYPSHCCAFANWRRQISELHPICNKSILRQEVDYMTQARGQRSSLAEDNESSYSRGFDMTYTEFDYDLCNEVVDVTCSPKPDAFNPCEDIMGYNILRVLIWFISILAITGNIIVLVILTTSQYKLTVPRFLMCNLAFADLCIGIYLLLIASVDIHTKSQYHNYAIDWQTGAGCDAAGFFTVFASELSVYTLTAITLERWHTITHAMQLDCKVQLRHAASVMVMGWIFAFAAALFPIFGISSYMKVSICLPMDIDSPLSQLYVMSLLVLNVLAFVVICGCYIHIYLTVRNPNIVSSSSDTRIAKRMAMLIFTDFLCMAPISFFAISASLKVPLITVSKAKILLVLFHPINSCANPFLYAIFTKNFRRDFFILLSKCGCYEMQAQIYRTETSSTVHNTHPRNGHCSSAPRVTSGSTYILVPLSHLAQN
As to the kind of experiment: EC50 of cyclic AMP production in CHO FSHR cells + EC20 FSH (Assay A). Type of experiment: cell-based.
Settings: not given
In a few lines: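 cAMP HTRF read-out (665 nm/620 nm ratio) after 1 h at 37° C of Cho-FSHR-LUC cells treated with serially diluted test compound plus EC20 FSH ([…]) and IBMX (final 200 μM). Responses given as percent of maximal FSH-standard effect.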
In the case of `[2H]C([2H])([2H])OCC(C)(C)N(C(=O)c1nn(-c2ccsc2)c2c1COc1cc(OC)c(C=C(C)C)cc1-2)C([2H])([2H])[2H]` [Compound 58], the EC50 was less than 100 nM.

Still in this experiment, the particulars now being: CHO FSHR cells + EC20 FSH, cAMP HTRF; read-out: Assay A: EC50 of cyclic AMP production.
Consider `COc1cc2c(cc1C=C(C)C)-c1c(c(C(=O)N3CCCC(C(=O)N(C)C)CC3)nn1-c1ccsc1)CO2` (stereo not shown) [Compound 41, 1-[7-Methoxy-8-(2-methyl-propenyl)-1-thiophen-3-yl-1,4-dihydro-chromeno[4,3-c]pyrazole-3-carbonyl]-azepane-4-carboxylic Acid Dimethylamide], for which the EC50 fell in the range of 100 to 1000 nM.
Still for that read-out and setting: the same measure for `COc1cc2c(cc1-c1cncnc1)-c1c(c(C(=O)N(C)C(C)(C)C)nn1-c1ccsc1)CO2` [Compound 70, 7-Methoxy-8-pyrimidin-5-yl-1-thiophen-3-yl-1,4-dihydro-chromeno[4,3-c]pyrazole-3-carboxylic acid tert-butyl-methyl-amide]: less than 100 nM; for `CNC(=O)C1CCCN(C(=O)c2nn(-c3ccsc3)c3c2COc2cc(OC)c(C=C(C)C)cc2-3)CC1` (stereo not shown) [Compound 42, 1-[7-Methoxy-8-(2-methyl-propenyl)-1-thiophen-3-yl-1,4-dihydro-chromeno[4,3-c]pyrazole-3-carbonyl]-azepane-4-carboxylic Acid Methylamide]: 100 to 1000 nM.
Still for that read-out and setting: to `[2H]C([2H])([2H])N(CCN1CCOC1=O)C(=O)c1nn(-c2ccsc2)c2c1COc1cc(OC)c(C=C(C)C)cc1-2` [Compound 56] belongs less than 100 nM; to `COc1cc2c(cc1C=C(C)C)-c1c(c(C(=O)N3CCCC(N)CC3)nn1-c1ccsc1)CO2` (stereo not shown) [Compound 36, (4-Amino-azepan-1-yl)-[7-methoxy-8-(2-methyl-propenyl)-1-thiophen-3-yl-1,4-dihydro-chromeno[4,3-c]pyrazol-3-yl]-methanone], 100 to 1000 nM.
On the same count and under the same terms, the same measure for `COc1cc2c(cc1-c1ccnn1C)-c1c(c(C(=O)NC3(C)COC3)nn1-c1ccsc1)CO2` [Compound 109, 7-Methoxy-8-(2-methyl-2H-pyrazol-3-yl)-1-thiophen-3-yl-1,4-dihydro-chromeno[4,3-c]pyrazole-3-carboxylic acid (3-methyl-oxetan-3-yl)-amide]: 100 to 1000 nM; for `COc1cc2c(cc1-c1cnn(CCN(C)C)c1)-c1c(c(C(=O)N3CCOCC3(C)C)nn1-c1ccsc1)CO2` [Compound 203, {8-[1-(2-Dimethylamino-ethyl)-1H-pyrazol-4-yl]-7-methoxy-1-thiophen-3-yl-1,4-dihydro-chromeno[4,3-c]pyrazol-3-yl}-(3,3-dimethyl-morpholin-4-yl)-methanone]: 100 to 1000 nM.
`COc1cc2c(cc1-c1cn[nH]c1)-c1c(c(C(=O)N3CCOCC3(C)C)nn1-c1ccsc1)CO2` [Compound 80, (3,3-Dimethyl-morpholin-4-yl)-[7-methoxy-8-(1H-pyrazol-4-yl)-1-thiophen-3-yl-1,4-dihydro-chromeno[4,3-c]pyrazol-3-yl]-methanone]: the half-maximal effective concentration (EC50) was less than 100 nM.
Same read-out and setting: the same measure for `COc1cc2c(cc1-c1ccn(C)c1)-c1c(c(C(=O)NC3CC(O)C3)nn1-c1ccsc1)CO2` (stereo not shown) [Compound 136, 7-Methoxy-8-(1-methyl-1H-pyrrol-3-yl)-1-thiophen-3-yl-1,4-dihydro-chromeno[4,3-c]pyrazole-3-carboxylic acid (3-hydroxy-cyclobutyl)-amide]: more than 5000 nM; for `COc1cc2c(cc1-c1ccn(C)c1)-c1c(c(C(=O)N(C)CC3(C)COC3)nn1-c1ccsc1)CO2` [Compound 101, 7-Methoxy-8-(1-methyl-1H-pyrrol-3-yl)-1-thiophen-3-yl-1,4-dihydro-chromeno[4,3-c]pyrazole-3-carboxylic acid methyl-(3-methyl-oxetan-3-ylmethyl)-amide]: less than 100 nM; for `[2H]C([2H])([2H])OCC1(C)CCCN1C(=O)c1nn(-c2ccsc2)c2c1COc1cc(OC)ccc1-2` (stereo not shown) [Compound 183, (2-Methoxymethyl-2-methyl-pyrrolidin-1-yl)-(7-methoxy-1-thiophen-3-yl-1,4-dihydro-chromeno[4,3-c]pyrazol-3-yl)-methanone]: 100 to 1000 nM.
Still for that read-out and setting: to `COc1cc2c(cc1C=C(C)C)-c1c(c(C(=O)N(C)C(C)(C)C)nn1-c1cccs1)CO2` [Compound 90, 7-Methoxy-8-(2-methyl-propenyl)-1-thiophen-2-yl-1,4-dihydro-chromeno[4,3-c]pyrazole-3-carboxylic Acid tert-butyl-methyl-amide] belongs less than 100 nM; to `COc1cc2c(cc1C1=CCCO1)-c1c(c(C(=O)N(C)C(C)(C)C)nn1-c1ccsc1)CO2` [Compound 74, 8-(4,5-Dihydro-furan-2-yl)-7-methoxy-1-thiophen-3-yl-1,4-dihydro-chromeno[4,3-c]pyrazole-3-carboxylic acid tert-butyl-methyl-amide], less than 100 nM.
Same read-out and setting: the same measure for `COc1cc2c(cc1-c1ccn(C)c1)-c1c(c(C(=O)N(C)C3COC3)nn1-c1ccsc1)CO2` [Compound 103, 7-Methoxy-8-(1-methyl-1H-pyrrol-3-yl)-1-thiophen-3-yl-1,4-dihydro-chromeno[4,3-c]pyrazole-3-carboxylic acid methyl-oxetan-3-yl-amide]: 100 to 1000 nM.
As to `COc1cc2c(cc1-c1ccn(C)n1)-c1c(c(C(=O)NC3(C)COC3)nn1-c1ccsc1)CO2` [Compound 100, 7-Methoxy-8-(1-methyl-1H-pyrazol-3-yl)-1-thiophen-3-yl-1,4-dihydro-chromeno[4,3-c]pyrazole-3-carboxylic acid (3-methyl-oxetan-3-yl)-amide], the half-maximal effective concentration (EC50) fell in the range of 100 to 1000 nM.
Same read-out and setting: the same measure for `COc1cc2c(cc1CC(C)C)-c1c(c(C(=O)NC3(CO)COC3)nn1-c1ccsc1)CO2` [Compound 141, 8-Isobutyl-7-methoxy-1-thiophen-3-yl-1,4-dihydro-chromeno[4,3-c]pyrazole-3-carboxylic acid (3-hydroxymethyl-oxetan-3-yl)-amide]: 1000 to 5000 nM; for `COc1cc2c(cc1-c1ccn(C)n1)-c1c(c(C(=O)N3CCNCC34CC4)nn1-c1ccsc1)CO2` [Compound 171, (4,7-Diaza-spiro[2.5]oct-4-yl)-[7-methoxy-8-(1-methyl-1H-pyrazol-3-yl)-1-thiophen-3-yl-1,4-dihydro-chromeno[4,3-c]pyrazol-3-yl]-methanone]: 100 to 1000 nM; for `COc1cc2c(cc1-c1c[nH]nc1C)-c1c(c(C(=O)N(C)C(C)(C)C)nn1-c1ccsc1)CO2` [Compound 71, 7-Methoxy-8-(3-methyl-1H-pyrazol-4-yl)-1-thiophen-3-yl-1,4-dihydro-chromeno[4,3-c]pyrazole-3-carboxylic acid tert-butyl-methyl-amide]: less than 100 nM.
On the same count and under the same terms, to `COc1cc2c(cc1C=C(C)C)-c1c(c(C(=O)N3CCC34COC4)nn1-c1ccsc1)CO2` [Compound 44, [7-Methoxy-8-(2-methyl-propenyl)-1-thiophen-3-yl-1,4-dihydro-chromeno[4,3-c]pyrazol-3-yl]-(6-oxa-1-aza-spiro[3.3]hept-1-yl)-methanone] belongs 100 to 1000 nM.
Same read-out and setting: the same measure for `COc1cc2c(cc1-c1ccnn1C)-c1c(c(C(=O)N(C)CC3(C)COC3)nn1-c1ccsc1)CO2` [Compound 110, 7-Methoxy-8-(2-methyl-2H-pyrazol-3-yl)-1-thiophen-3-yl-1,4-dihydro-chromeno[4,3-c]pyrazole-3-carboxylic acid methyl-(3-methyl-oxetan-3-ylmethyl)-amide]: less than 100 nM.
Take `[2H]C([2H])([2H])OC1CC(N(C(=O)c2nn(-c3ccsc3)c3c2COc2cc(OC)c(-c4ccn(C)c4)cc2-3)C([2H])([2H])[2H])C1` (stereo not shown) [Compound 142]: the half-maximal effective concentration (EC50) is more than 5000 nM.
